# From ChEMBL document CHEMBL3885881, “DrugMatrix”
# Where “and” joins values, the source holds several entries; their conditions need not be identical. Identical values can stand only once.
# Species: Rattus norvegicus
# Test: DrugMatrix - Regimen: Daily Repeat
# Assay type: toxicity, organism-based, Sprague-Dawley
# Design: regimen Daily Repeat, gender Male, age 6-8 weeks
# Details: in vivo, ip, 0 mg/kg, route intraperitoneal, dose level Control, vehicle 100 % SALINE; for ABSOLUTE BASOPHIL / ABSOLUTE EOSINOPHIL / ABSOLUTE LYMPHOCYTE / ABSOLUTE MONOCYTE / ABSOLUTE SEGMENTED NEUTROPHIL / BASOPHIL / EOSINOPHIL / ERYTHROCYTE COUNT / HEMATOCRIT / HEMOGLOBIN / LEUKOCYTE COUNT / LYMPHOCYTE / MEAN CORPUSCULAR HEMOGLOBIN / MEAN CORPUSCULAR HEMOGLOBIN CONCENTRATION / MEAN CORPUSCULAR VOLUME / MONOCYTE / NEUTROPHIL / PLATELET COUNT: tissue Blood
# [1] = 120 h, tissue Plasma, time 5 day
# [2] = […], tissue Plasma, time 28 day
structure (smiles),measurement,setting,value
CCN[C@@H]1C[C@H](N)[C@@H](O[C@H]2OC(CN)=CC[C@H]2N)[C@H](O)[C@H]1O[C@H]1OC[C@](C)(O)[C@H](NC)[C@H]1O [NETILMICIN],ABSOLUTE BASOPHIL,"120 h, time 5 day",32 cells/µL
same,ABSOLUTE EOSINOPHIL,"120 h, time 5 day",110 cells/µL
same,ABSOLUTE LYMPHOCYTE,"120 h, time 5 day",6630 cells/µL
same,ABSOLUTE MONOCYTE,"120 h, time 5 day",140 cells/µL
same,ABSOLUTE SEGMENTED NEUTROPHIL,"120 h, time 5 day",1170 cells/µL
same,BASOPHIL,"120 h, time 5 day",0.38% and 0.35%
same,EOSINOPHIL,"120 h, time 5 day",1.28% and 0.62%
same,ERYTHROCYTE COUNT,"120 h, time 5 day",7.45 x10E6/uL and 7.26 x10E6/uL
same,HEMATOCRIT,"120 h, time 5 day",45.74% and 47.97%
same,HEMOGLOBIN,"120 h, time 5 day",14.72 G/DL and 15.38 G/DL
same,LEUKOCYTE COUNT,"120 h, time 5 day",8.11 x10E3/uL and 8.68 x10E3/uL
same,LYMPHOCYTE,"120 h, time 5 day",81.3% and 86.77%
same,MEAN CORPUSCULAR HEMOGLOBIN,"120 h, time 5 day",19.76 pg and 21.18 pg
same,MEAN CORPUSCULAR HEMOGLOBIN CONCENTRATION,"120 h, time 5 day",32.16 G/DL and 32.05 G/DL
same,MEAN CORPUSCULAR VOLUME,"120 h, time 5 day",61.38 fL and 66.15 fL
same,MONOCYTE,"120 h, time 5 day",1.76% and 1.57%
same,NEUTROPHIL,"120 h, time 5 day",14.9% and 9.53%
same,PLATELET COUNT,"120 h, time 5 day",1322.4 x10E3/uL and 1786 x10E3/uL
same,ALANINE AMINOTRANSFERASE,[1],25.8 u/L and 20.5 u/L
same,ALBUMIN,[1],3.64 G/DL and 4.35 G/DL
same,ALKALINE PHOSPHATASE,[1],233.6 u/L and 300 u/L
same,ASPARTATE AMINOTRANSFERASE,[1],81.4 u/L and 86.75 u/L
same,BLOOD UREA NITROGEN,[1],14.4 mg/dL and 17 mg/dL
same,CARBON DIOXIDE,[1],29 mmol/L
same,CHLORIDE,[1],105.6 MEQ/L and 106.25 MEQ/L
same,CHOLESTEROL,[1],69.2 mg/dL and 51.25 mg/dL
same,CREATINE PHOSPHOKINASE,[1],384.75 u/L
same,CREATININE,[1],0.56 mg/dL and 0.47 mg/dL
same,GLUCOSE,[1],125.4 mg/dL and 128.75 mg/dL
same,LACTATE DEHYDROGENASE,[1],105.4 u/L and 145 u/L
same,LIPASE,[1],22.4 u/L and 13.25 u/L
same,PHOSPHORUS,[1],11.48 mg/dL and 11.8 mg/dL
same,POTASSIUM,[1],5.52 MEQ/L and 6.58 MEQ/L
same,SODIUM,[1],147 MEQ/L and 151 MEQ/L
same,TOTAL BILIRUBIN,[1],0.2 mg/dL and 0.33 mg/dL
same,TOTAL PROTEIN,[1],6.1 G/DL and 6.53 G/DL
same,URIC ACID,[1],1.06 mg/dL and 1.95 mg/dL
same,ABSOLUTE BASOPHIL,"[…], time 14 day",130 cells/µL
same,ABSOLUTE EOSINOPHIL,"[…], time 14 day",140 cells/µL
same,ABSOLUTE LYMPHOCYTE,"[…], time 14 day",13500 cells/µL
same,ABSOLUTE MONOCYTE,"[…], time 14 day",400 cells/µL
same,ABSOLUTE SEGMENTED NEUTROPHIL,"[…], time 14 day",2330 cells/µL
same,HEMATOCRIT,"[…], time 14 day",45.98%
same,ABSOLUTE BASOPHIL,"[…], time 28 day",91 cells/µL
same,ABSOLUTE EOSINOPHIL,"[…], time 28 day",110 cells/µL
same,ABSOLUTE LYMPHOCYTE,"[…], time 28 day",9910 cells/µL
same,ABSOLUTE MONOCYTE,"[…], time 28 day",210 cells/µL
same,ABSOLUTE SEGMENTED NEUTROPHIL,"[…], time 28 day",1560 cells/µL
same,BASOPHIL,"[…], time 28 day",0.77%
same,EOSINOPHIL,"[…], time 28 day",0.92%
same,ERYTHROCYTE COUNT,"[…], time 28 day",8.21 x10E6/uL
same,HEMATOCRIT,"[…], time 28 day",47.53%
same,HEMOGLOBIN,"[…], time 28 day",15.65 G/DL
same,LEUKOCYTE COUNT,"[…], time 28 day",11.91 x10E3/uL
same,LYMPHOCYTE,"[…], time 28 day",83.34%
same,MEAN CORPUSCULAR HEMOGLOBIN,"[…], time 28 day",19.07 pg
same,MEAN CORPUSCULAR HEMOGLOBIN CONCENTRATION,"[…], time 28 day",32.93 G/DL
same,MEAN CORPUSCULAR VOLUME,"[…], time 28 day",57.9 fL
same,MONOCYTE,"[…], time 28 day",1.68%
same,NEUTROPHIL,"[…], time 28 day",12.97%
same,PLATELET COUNT,"[…], time 28 day",1323.8 x10E3/uL
same,CARBON DIOXIDE,"[…], tissue Plasma, time 14 day",25 mmol/L
same,ALANINE AMINOTRANSFERASE,[2],30 u/L
same,ALBUMIN,[2],3.71 G/DL
same,ALKALINE PHOSPHATASE,[2],186.8 u/L
same,ASPARTATE AMINOTRANSFERASE,[2],78.2 u/L
same,BLOOD UREA NITROGEN,[2],14.2 mg/dL
same,CHLORIDE,[2],105.4 MEQ/L
same,CHOLESTEROL,[2],44.9 mg/dL
same,CREATINE PHOSPHOKINASE,[2],334.3 u/L
same,CREATININE,[2],0.6 mg/dL
same,GLUCOSE,[2],147.2 mg/dL
same,LACTATE DEHYDROGENASE,[2],123.1 u/L
same,LIPASE,[2],9.6 u/L
same,PHOSPHORUS,[2],10.01 mg/dL
same,POTASSIUM,[2],6.57 MEQ/L
same,SODIUM,[2],149.5 MEQ/L
